Measurements as given in patent US20190271703A1, “BIOMARKERS AND TREATMENTS FOR METASTATIC CANCER” (DUKE UNIVERSITY, priority 2016, published 2019).

Tested on: Pro-N-cadherin-positive and pro-N-cadherin-negative SUM159 sorted cells
Assay: Clonogenic assay on pro-N-cadherin-sorted cells
Type: cell-based
Details: docetaxel 50, 75, 100, 150 nM for 48 h; pro-N-cadherin positive vs negative population
Protocol: Pro-N-cadherin-positive and pro-N-cadherin-negative SUM159 sorted cells were exposed to the indicated docetaxel concentrations and surviving fraction was determined in a clonogenic assay. Mean# colonies from three wells (+/−SEM) was determined for each cell population.
Pro-N-cadherin-positive and Pro-N-cadherin-negative populations were sorted from untreated SUM159 cells, seeded into 6 well plates ([…]) at varying cell densities, and incubated at 37° C., 5% C02 overnight. The next day, culture medium was removed and treatments were added [no treatment, Docetaxel (50 nM, 75 nM, 100 nM and 150 nM]. After 48 h, treatments were removed, cells were washed with HBSS, and fresh culture medium (lacking drug) was added. Every three days, culture medium was changed and plates were examined for colony formation. To stain colonies, plates were fixed in 10% Acetone/10% Methanol solution for 10 min. Colonies were stained with 2% Crystal Violet for 30 minutes. The plates are then washed with water and allowed to air dry. Plates were imaged on GelCount and colonies were counted with Image J.

CC(=O)O[C@@]12CO[C@@H]1C[C@H](O)[C@@]1(C)C(=O)[C@H](O)C3=C(C)[C@@H](OC(=O)[C@H](O)[C@@H](NC(=O)OC(C)(C)C)c4ccccc4)C[C@@](O)([C@@H](OC(=O)c4ccccc4)[C@H]21)C3(C)C [docetaxel]
surviving fraction (relative resistance of sorted populations): significantly more resistant
